The source of these data is patent publication EP1954678B1, “NOVEL NK1 AND NK2 ANTAGONISTS” (Abbott Products GmbH, priority 2005, dated 2007).

The target of test [1] is T1, NK2 receptors (Cavia porcellus, UniProt Q64077).
T1 sequence (Q64077 1-402): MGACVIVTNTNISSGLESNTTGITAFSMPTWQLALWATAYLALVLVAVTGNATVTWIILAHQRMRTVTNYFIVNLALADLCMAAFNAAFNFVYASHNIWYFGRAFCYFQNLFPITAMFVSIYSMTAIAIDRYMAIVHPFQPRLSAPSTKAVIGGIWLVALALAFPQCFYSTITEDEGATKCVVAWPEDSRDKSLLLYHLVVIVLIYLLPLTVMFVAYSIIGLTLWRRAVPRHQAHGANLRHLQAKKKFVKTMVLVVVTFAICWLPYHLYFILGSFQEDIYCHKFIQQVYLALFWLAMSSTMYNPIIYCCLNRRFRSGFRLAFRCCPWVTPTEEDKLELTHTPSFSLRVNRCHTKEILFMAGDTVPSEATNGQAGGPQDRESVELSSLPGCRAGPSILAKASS
The experiment in a line: NK-2-receptor-antagonistic effectiveness in vivo in anaesthetised guinea pigs (NKA test stimulus: late hypotension, bronchoconstriction, colonic pressure). The arrangement: from tissue; host or cells: whole anaesthetised guinea pig (in vivo); species or system Pirbright-White guinea pigs. The settings on record: guinea pig, iv. An excerpt: (§1) The NK-1- and NK-2-antagonistic activities of the test substances were investigated in anaesthetised guinea pigs in each case after intravenous (= i.v.) and oral (= p.o.) administration in vivo. With the present test model it is possible to detect both NK-2-antagonistic effects in three different organ systems (respiratory tracts, colon and circulation) and NK-1-antagonistic effects (rapid drop in blood pressure) in an animal simultaneously.
(§2) Pirbright-White guinea pigs of a body weight of 500-700 g were anaesthetised with ketamine/xylazine (67/13 mg/kg subcutaneously, initial dose, further doses administered as required). The animals were provided with an intravenous catheter in order to administer the substance and an intra-arterial catheter to measure the blood pressure. The animals were artificially ventilated via a tracheal cannula and the respiratory pressure was recorded by means of a pressure transducer. A balloon was introduced into the distal colon of the animals for manometric recording of colon motility by means of a pressure transducer. Blood pressure, heart rate, respiratory pressure and colonic pressure were measured continuously for each animal and plotted on a recorder and by means of a digital data-processing system. […] The second phase of delayed hypotension (= phase of maximum hypotension after 2-5 min.) on the other hand is mediated via NK-2 receptors, since they can be blocked by specific NK-2 receptor antagonists. […] Table 6: NK-1- and NK-2-receptor-antagonistic effective-ness of the test substances of Formula I on guinea pigs in vivo after intravenous administration
(§3) These ED50 values obtained from cumulative dose effect curves are plotted in table 6.
(§4) The antagonistic effects of the test substances were then determined as "area under the curve" ("AUC") over the investigation period after administration of the test substances (1 - 180 min after administration) and the ED50 values after oral administration obtained therefrom were plotted in table 7. Table 7: NK-1- and NK-2-receptor-antagonistic effective-ness of the test substances of Formula I on guinea pigs in vivo after oral administration

Test [2] addresses T2, NK1 receptors (Cavia porcellus, UniProt P30547). The test can be described thus: NK-1-receptor-antagonistic effectiveness in vivo in anaesthetised guinea pigs (NKA test stimulus, early hypotension). Details: from tissue; host or cells: whole anaesthetised guinea pig (in vivo); species or system Pirbright-White guinea pigs. The settings on record: guinea pig, iv, read-out: ED50 iv after 1 min (cumulative) NK1 (early hypotension).
Excerpt: as §1, §2, §3, §4

Test [3] has as its target T3, cloned human NK1 receptors (Homo sapiens, UniProt P25103).
T3 construct: expressed in transfected cells
The test can be described thus: Ca2+ measurements using FLIPR for NK1 activity in CHO cells. The test is classed as cell-based. Particulars: substance P 10^-8 M as agonist; compound applied 7 min before; pA2 calculated from IC50. The source says: (§5) The NK receptor is coupled to Gq.
(§6) All steps were done under sterile conditions. […] The results are summarized in table 5: Table 5: pA2 data for NK1 and NK2: […]

Test [4] concerns the target T4, cloned human NK2 receptors (Homo sapiens, UniProt P21452).
T4 construct: expressed in transfected cells
T4 sequence (P21452 1-398): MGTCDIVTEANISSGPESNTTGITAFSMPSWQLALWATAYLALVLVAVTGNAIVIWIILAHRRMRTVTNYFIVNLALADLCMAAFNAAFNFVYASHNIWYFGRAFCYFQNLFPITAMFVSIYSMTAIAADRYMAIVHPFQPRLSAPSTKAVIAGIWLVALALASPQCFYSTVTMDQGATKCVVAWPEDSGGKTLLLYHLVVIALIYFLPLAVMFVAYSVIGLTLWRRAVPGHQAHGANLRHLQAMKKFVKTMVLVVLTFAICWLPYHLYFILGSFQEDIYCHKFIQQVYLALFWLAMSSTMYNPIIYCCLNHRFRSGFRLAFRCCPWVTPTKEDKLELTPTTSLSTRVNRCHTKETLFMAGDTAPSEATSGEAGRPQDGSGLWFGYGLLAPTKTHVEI
The test can be described thus: Ca2+ measurements using FLIPR for NK2 activity in CHO cells. The test is classed as cell-based. The settings on record: NKA 10^-7 M as agonist; compound applied 7 min before; pA2 calculated from IC50.
Excerpt: as §5, §6

The target of test [5] is T5, human NK2 receptors (Homo sapiens, UniProt P21452).
T5 construct: expressed in transfected cells; host or cells: CHO cells (membrane preparation)
T5 sequence (P21452 1-398): T4 sequence (P21452 1-398)
The test can be described thus: Binding of the test substances to NK2 receptors in vitro ([3H]-SR 48968 displacement, CHO cell membranes). The settings on record: [3H]-SR 48968 as ligand; membranes of CHO cells expressing the human NK2 receptor; 90 min incubation; Ki calculated from IC50; read-out: pKi (NK2) (converted). The protocol: The affinity of the test substances to human NK2 receptors was measured in vitro. The ability of the test substances to displace the selective NK2 receptor antagonist SR 48968 (= saredutant) used as reference ligand from its corresponding bond was determined.
The receptor binding studies were carried out with radioactively marked [^3H]-SR 48968 (from Amersham) as ligand. For the binding test, different samples of a membrane preparation of CHO cells (= egg cells of the Chinese hamster, Chinese hamster oocytes), which express the human NK2 receptor (for preparation, see N.P. Gerard et al., Journal of Biological Chemistry 265/33 (1990) 20455-20462), were incubated for 90 minutes (= min.) with a solution of the marked ligand, with the incubation mixtures containing no test substance or additions of different concentrations of test substance. Then in each case the membrane-bound ligands in the samples were separated from free ligands by filtration. The fraction remaining in the filter was washed several times with buffer solution, before its radioactivity was measured using a liquid scintillation counter. That concentration which effects half-maximum displacement of the bound reference ligand was determined as IC50 of the respective test substance. The inhibition constant (Ki value) of the test substance was calculated from the respective IC50 value, and was stated as the negative logarithmised value thereof (pKi).
If several measurements were performed, the average thereof was listed each time. The pKi value is a measurement of the affinity of the test substances to human NK2 receptors.

In test [6] the target is T6, human NK1 receptors (Homo sapiens, UniProt P25103).
T6 construct: expressed in transfected cells; host or cells: CHO cells (membrane preparation)
The experiment in a line: Binding of the test substances to NK1 receptors in vitro ([3H]-Substance P displacement, CHO cell membranes). Particulars: [3H]-Substance P as ligand; membranes of CHO cells expressing the human NK1 receptor; Ki calculated from IC50; read-out: pKi (NK1) (converted). The procedure:
In The Netherlands, the affinity of the test substances to human NK1 receptors was measured in vitro.
The receptor binding studies were performed with [^3H]-Substance P as ligand. For the binding test, different samples of a membrane preparation of CHO cells (= egg cells of the Chinese hamster, Chinese hamster oocytes), which express the human NK1 receptor ("Accession Number" of the associated nucleic acid sequence = M74290; "Accession Number" of the associated protein sequence = P25103; cf. Takeda, Y.; Chou, K. B., Takeda, J.; Sachais, B.S. and Krause, J. E; Biochemical and Biophysical Research Communications, 179(3) (1991) 1232 - 1240), were incubated with a solution of the marked ligand, with the incubation mixtures containing no test substance or additions of different concentrations of test substance. Then, separation of bound and free ligands was performed in each of the samples with the aid of glass-fibre filtration. The fraction remaining in the filter was washed several times with buffer solution and then the radioactivity of the fraction remaining in the filter was measured using a beta scintillation counter.
For the compounds of Examples 1 to 14, that concentration which effects half maximum displacement of the bound ligand was determined as IC50 of the respective test substance. From this, the corresponding inhibition constant (Ki value) of the test substance was calculated, and was stated as the negative common logarithm of the Ki value (= pKi value). The pKi value is a measurement of the affinity of the test substances to human NK1 receptors.

The target in test [7] is T2, NK1 receptors. The test can be described thus: Functional NK1 antagonism on isolated guinea pig aorta ring preparations (Substance P induced relaxation). The arrangement: from tissue; host or cells: guinea pig aorta ring preparations; species or system Pirbright-White guinea pigs. The procedure:
In The Netherlands, the action antagonistic to NK1 receptors of the test substances was measured in vitro on isolated ring preparations, kept in an oxygenated nutrient solution, of the aortas of Pirbright-White guinea pigs.
In order to measure the contraction of the vessel muscles, the preparations were fixed to a hook, joined by a thread to a force measuring apparatus and the contractions were recorded in each case on a plotter. The aorta preparations were tonicised with phenylephrine. […] The relaxations before and after the administration of the test substance were quantified in percent. The effective concentration of the half maximum inhibition of the relaxation of the tone (= EC50) was calculated. The negative common logarithm of the EC50 value (= pEC50) was given as characteristic variable. The pEC50 value is a measurement of the functional effectiveness of the test substances on NK1 receptors.

Test [8] concerns the target T1, NK2 receptors. The experiment in a line: Functional NK2 antagonism on isolated guinea pig gall-bladder preparations (NKA induced contraction). The arrangement: from tissue; host or cells: guinea pig gall-bladder preparations; species or system Pirbright-White guinea pigs. The protocol:
The NK2 receptor-antagonising action of the test substances was determined on isolated gall-bladder preparations from Pirbright-White guinea pigs, held in an oxygen-saturated nutrient solution. To this end, the preparations were fastened on one hand in the nutrient solution to organ holders and on the other hand on a force meter by a thread.
The concentration of the test substances was increased iteratively in the subsequent experiments as a function of the result in logarithmic whole or half steps, until at least one concentration above or below 50% inhibition of contraction was determined (up to at most 10^-5 mol/l). For each concentration, the average value of inhibition of contraction was calculated from 2 to 4 preparations. In each case, the concentration of half-maximum inhibition (IC50) per test substance was calculated as characteristic variable.

Setting [9] is: read-out: ED50 iv after 1 min (cumulative) NK2 (broncho-constriction).
[10] abbreviates: read-out: ED50 iv after 1 min (cumulative) NK2 (colonic motility).
Where [11] appears, read: read-out: ED50 iv after 1 min (cumulative) NK2 (late hypotension).

Where two headings read alike, the source gives them in different places.

T6 sequence (P25103 whole entry): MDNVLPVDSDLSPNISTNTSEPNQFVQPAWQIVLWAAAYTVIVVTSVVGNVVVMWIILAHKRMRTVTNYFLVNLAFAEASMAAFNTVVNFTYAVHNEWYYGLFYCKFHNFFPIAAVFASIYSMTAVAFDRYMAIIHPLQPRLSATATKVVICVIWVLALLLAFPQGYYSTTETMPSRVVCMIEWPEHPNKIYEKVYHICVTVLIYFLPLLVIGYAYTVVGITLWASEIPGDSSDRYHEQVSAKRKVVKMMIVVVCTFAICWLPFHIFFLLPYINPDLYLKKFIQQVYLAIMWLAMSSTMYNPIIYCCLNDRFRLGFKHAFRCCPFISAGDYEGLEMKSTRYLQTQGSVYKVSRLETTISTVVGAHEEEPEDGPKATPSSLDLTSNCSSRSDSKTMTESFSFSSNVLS
T2 sequence (P30547 whole entry): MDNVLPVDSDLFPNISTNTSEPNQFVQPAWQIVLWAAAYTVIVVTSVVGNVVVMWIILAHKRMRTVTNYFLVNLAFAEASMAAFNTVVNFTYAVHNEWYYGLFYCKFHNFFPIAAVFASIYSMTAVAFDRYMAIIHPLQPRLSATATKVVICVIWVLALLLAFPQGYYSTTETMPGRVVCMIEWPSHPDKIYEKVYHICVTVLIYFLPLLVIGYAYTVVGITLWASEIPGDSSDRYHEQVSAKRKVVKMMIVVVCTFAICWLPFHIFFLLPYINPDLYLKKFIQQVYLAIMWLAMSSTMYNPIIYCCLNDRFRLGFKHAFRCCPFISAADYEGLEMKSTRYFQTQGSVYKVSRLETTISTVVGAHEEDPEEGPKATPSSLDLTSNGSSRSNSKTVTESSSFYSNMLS
T3 sequence (P25103 whole entry): as the sequence (P25103 whole entry) above

The term ED50 denotes the dose that gives a 50% effect, or the effect in half of the subjects. Consider `CN(C[C@@H](CCN1CCN([C@@H](c2ccccc2)[C@H](O)CO)CC1)c1ccc(Cl)c(Cl)c1)C(=O)c1cc(C#N)cc2ccccc12` [Compound 23, 3-cyano-N-[(2S)-2-(3,4-dichlorophenyl)-4-{4-[(1S,2S)-2,3-dihydroxy-1-phenylpropyl]piperazin-1-yl)butyl]-N-methyl-1-naphthamide], for which the ED50 in test [1] (setting [9]) amounted to 0.725 µmol/kg; in test [1] (setting [10]), 0.961 µmol/kg; in test [1] (setting [11]), 1.17 µmol/kg; in test [2], 0.029 µmol/kg.

With `CN(C[C@@H](CCN1CCN([C@@H](c2ccsc2)[C@H](O)CO)CC1)c1ccc(Cl)c(Cl)c1)C(=O)c1cc(C#N)cc2ccccc12` [Compound 8, 3-cyano-N-[(2S)-2-(3,4-dichlorophenyl)-4-{4-[(1S,2S)-2,3-dihydroxy-1-(3-thienyl)propyl]piperazin-1-yl}butyl]-N-methyl-1-naphthamide], the Kb in test [3] was 0.631 nM; in test [4], 1.26 nM. Moreover, the ED50 in test [1] (setting [9]) stood at 1.13 µmol/kg; in test [1] (setting [10]), 0.135 µmol/kg; in test [1] (setting [11]), 0.803 µmol/kg; in test [2], 0.07 µmol/kg. The Ki in test [5] is 31.6 nM; in test [6], 7.94 nM.

As to `CN(C[C@@H](CCN1CCN([C@@H](c2cccs2)[C@H](O)CO)CC1)c1ccc(Cl)c(Cl)c1)C(=O)c1cc(C#N)cc2ccccc12` [Compound 9, 3-cyano-N-[(2S)-2-(3,4-dichlorophenyl)-4-{4-[(1R,2S)-2,3-dihydroxy-1-(2-thienyl)propyl]piperazin-1-yl}butyl]-N-methyl-1-naphthamide], in test [3], the Kb was 3.16 nM. In addition, the ED50 in test [1] (setting [9]) was 0.943 µmol/kg; in test [1] (setting [10]) it was 0.287 µmol/kg; in test [1] (setting [11]), 1.04 µmol/kg; in test [2] it was 0.099 µmol/kg. The Ki in test [5] was 63.1 nM; in test [6], 10 nM.

The EC50 is the concentration that produces a half-maximal response. Read a low EC50 as greater potency. One may read the IC50 as the concentration that gives 50% inhibition. Read a high IC50 as lower potency. As to `CN(C[C@@H](CCN1CCN([C@@H](c2ccsc2)[C@H](O)[C@@H](O)[C@H](O)CO)CC1)c1ccc(Cl)c(Cl)c1)C(=O)c1cc(C#N)cc2ccccc12` [Compound 5, 3-cyano-N-[(2S)-2-(3,4-dichlorophenyl)-4-{4-[(1S,2S,3R,4R)-2,3,4,5-tetrahydroxy-1-(3-thienyl)pentyl]piperazin-1-yl}butyl]-N-methyl-1-naphthamide], in test [7], a half-maximal response (EC50) required 0.1 nM. The molecule also gave an IC50 in test [8] of 31.6 nM. Also, the Ki in test [5] was 50.1 nM; in test [6], 1.26 nM.

With `CN(C[C@@H](CCN1CCN([C@@H](c2ccsc2)[C@H]2COC(=O)O2)CC1)c1ccc(Cl)c(Cl)c1)C(=O)c1cc(C#N)cc2ccccc12` [Compound 10, 3-cyano-N-[(2S)-2-(3,4-dichlorophenyl)-4-{4-[(S)-[(4S)-2-oxo-1,3-dioxolan-4-yl](3-thienyl)methyl]piperazin-1-yl}butyl]-N-methyl-1-naphthamide], the ED50 in test [1] (setting [9]) was determined as 0.045 µmol/kg; in test [1] (setting [10]), 0.109 µmol/kg; in test [1] (setting [11]), 0.04 µmol/kg; in test [2] it was 0.041 µmol/kg. Besides, the Ki was 100 nM in test [5] and 10 nM in test [6].
